The values below come from ChEMBL document CHEMBL5696441 (Nat Chem Biol, 2011).

Structures are written as SMILES. The source made the active and inactive calls. The rule behind the calls is not given here.

Usually IC50 stands for the point on the concentration scale where inhibition reaches its midpoint.

Assay [1] has as its target Platelet-derived growth factor receptor alpha (Homo sapiens) (UniProt P16234). The experiment in a line: Inhibition of PDGFRalpha (unknown origin) assessed as remaining activity at 1 uM by Kinome scan method relative to control.
Assay [2] deals with Tyrosine-protein kinase Mer (Homo sapiens) (UniProt Q12866). Briefly: Inhibition of MERTK (unknown origin) assessed as remaining activity at 1 uM by Kinome scan method relative to control.
Sequence of Tyrosine-protein kinase Mer (Homo sapiens) (Q12866 whole entry): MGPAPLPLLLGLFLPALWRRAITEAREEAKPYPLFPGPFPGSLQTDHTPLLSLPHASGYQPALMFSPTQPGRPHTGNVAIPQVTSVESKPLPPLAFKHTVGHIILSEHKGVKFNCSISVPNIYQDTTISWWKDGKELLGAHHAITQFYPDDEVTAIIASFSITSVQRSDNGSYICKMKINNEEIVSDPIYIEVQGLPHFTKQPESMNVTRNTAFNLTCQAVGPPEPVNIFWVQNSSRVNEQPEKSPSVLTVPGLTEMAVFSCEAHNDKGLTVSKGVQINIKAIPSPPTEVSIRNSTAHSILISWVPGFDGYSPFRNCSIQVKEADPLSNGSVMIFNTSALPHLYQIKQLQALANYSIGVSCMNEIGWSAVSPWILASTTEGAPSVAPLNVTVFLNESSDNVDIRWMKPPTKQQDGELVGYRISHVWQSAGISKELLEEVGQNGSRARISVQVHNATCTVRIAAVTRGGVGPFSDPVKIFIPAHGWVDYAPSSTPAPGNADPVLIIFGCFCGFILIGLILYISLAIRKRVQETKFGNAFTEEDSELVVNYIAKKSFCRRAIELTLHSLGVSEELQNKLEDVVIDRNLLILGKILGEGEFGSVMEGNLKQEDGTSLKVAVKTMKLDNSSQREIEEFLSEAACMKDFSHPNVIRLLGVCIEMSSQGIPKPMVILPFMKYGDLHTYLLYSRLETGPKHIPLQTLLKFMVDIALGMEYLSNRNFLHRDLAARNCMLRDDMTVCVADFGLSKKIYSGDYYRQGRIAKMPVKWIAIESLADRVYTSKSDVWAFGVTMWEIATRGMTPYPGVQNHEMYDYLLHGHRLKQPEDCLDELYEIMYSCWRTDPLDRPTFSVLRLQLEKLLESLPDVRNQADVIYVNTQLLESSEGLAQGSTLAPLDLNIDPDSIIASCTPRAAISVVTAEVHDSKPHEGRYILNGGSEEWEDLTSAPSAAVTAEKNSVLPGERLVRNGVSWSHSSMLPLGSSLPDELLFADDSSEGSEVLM
The target of assay [3] is Dual specificity protein kinase TTK (Homo sapiens) (UniProt P33981). Briefly: Inhibition of human TTK assessed as residual activity at 1 uM using RBER-CHKtide as substrate in presence of 33P-ATP by ProQinase assay relative to control.
Sequence of Dual specificity protein kinase TTK (Homo sapiens) (P33981 whole entry): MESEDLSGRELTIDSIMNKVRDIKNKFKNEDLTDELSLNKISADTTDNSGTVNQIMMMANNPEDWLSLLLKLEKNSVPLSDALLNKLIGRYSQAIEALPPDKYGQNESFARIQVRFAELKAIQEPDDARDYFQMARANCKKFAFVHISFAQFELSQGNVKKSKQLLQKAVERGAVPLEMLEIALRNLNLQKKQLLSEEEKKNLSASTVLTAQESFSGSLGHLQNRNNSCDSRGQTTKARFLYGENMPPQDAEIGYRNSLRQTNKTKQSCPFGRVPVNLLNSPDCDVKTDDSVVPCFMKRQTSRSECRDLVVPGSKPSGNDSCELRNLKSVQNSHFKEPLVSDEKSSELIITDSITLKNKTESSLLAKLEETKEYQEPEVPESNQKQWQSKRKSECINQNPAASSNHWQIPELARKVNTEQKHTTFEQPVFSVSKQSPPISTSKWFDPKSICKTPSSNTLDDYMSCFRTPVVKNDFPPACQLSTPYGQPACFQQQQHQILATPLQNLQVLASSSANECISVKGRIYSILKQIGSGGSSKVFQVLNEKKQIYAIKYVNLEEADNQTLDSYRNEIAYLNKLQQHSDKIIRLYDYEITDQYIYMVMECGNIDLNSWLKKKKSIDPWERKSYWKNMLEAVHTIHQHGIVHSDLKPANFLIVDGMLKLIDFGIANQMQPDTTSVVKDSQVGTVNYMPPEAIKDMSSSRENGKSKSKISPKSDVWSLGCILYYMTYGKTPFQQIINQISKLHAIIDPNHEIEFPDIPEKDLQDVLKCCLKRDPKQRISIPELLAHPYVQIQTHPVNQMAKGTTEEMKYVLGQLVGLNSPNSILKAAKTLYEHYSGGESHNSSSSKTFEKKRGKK
The target of assay [4] is Receptor-type tyrosine-protein kinase FLT3 (Homo sapiens) (UniProt P36888). The experiment in a line: Inhibition of FLT3 (unknown origin) assessed as remaining activity at 1 uM by Kinome scan method relative to control.
Assay [5] addresses Cyclin-Y/Cyclin-dependent kinase 16 (Homo sapiens) (UniProt Q00536+Q8ND76). The experiment in a line: Inhibition of human PCTAIRE1/CyclinY assessed as residual activity at 1 uM using RBER-GSK3 as substrate in presence of 33P-ATP by ProQinase assay relative to control. In kind it is protein-complex assay.
The target in assay [6] is T1, Myotonin-protein kinase (Homo sapiens) (UniProt Q09013).
T1 sequence (whole entry): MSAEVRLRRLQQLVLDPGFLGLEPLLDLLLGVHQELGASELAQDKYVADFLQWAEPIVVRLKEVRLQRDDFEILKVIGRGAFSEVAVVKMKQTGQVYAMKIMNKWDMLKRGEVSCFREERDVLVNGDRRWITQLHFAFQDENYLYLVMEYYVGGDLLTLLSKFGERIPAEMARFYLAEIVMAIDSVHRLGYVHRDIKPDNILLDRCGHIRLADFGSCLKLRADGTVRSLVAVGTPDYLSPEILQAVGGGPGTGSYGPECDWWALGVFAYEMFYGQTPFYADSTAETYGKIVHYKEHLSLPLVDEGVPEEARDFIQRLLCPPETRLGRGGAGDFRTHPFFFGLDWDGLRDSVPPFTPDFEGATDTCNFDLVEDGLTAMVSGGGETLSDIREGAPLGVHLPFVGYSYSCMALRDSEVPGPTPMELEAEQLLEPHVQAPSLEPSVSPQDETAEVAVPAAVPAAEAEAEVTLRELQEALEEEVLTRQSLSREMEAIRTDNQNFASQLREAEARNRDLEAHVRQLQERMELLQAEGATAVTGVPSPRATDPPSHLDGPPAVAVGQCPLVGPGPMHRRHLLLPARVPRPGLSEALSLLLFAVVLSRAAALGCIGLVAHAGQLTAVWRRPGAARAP
Briefly: Inhibition of human DMPK assessed as residual activity at 1 uM using RBER-CHKtide as substrate in presence of 33P-ATP by ProQinase assay relative to control.

In assay [7] the target is SRSF protein kinase 1 (Homo sapiens) (UniProt Q96SB4). Briefly: Inhibition of SRPK1 (unknown origin) assessed as remaining activity at 1 uM by Kinome scan method relative to control.
The target of assay [8] is Maternal embryonic leucine zipper kinase (Homo sapiens) (UniProt Q14680). The experiment in a line: Inhibition of human MELK assessed as residual activity at 1 uM using RBER-CHKtide as substrate in presence of 33P-ATP by ProQinase assay relative to control.
For assay [9], the target named is Serine/threonine-protein kinase PAK 4 (Homo sapiens) (UniProt O96013). Briefly: Inhibition of PAK4 (unknown origin) assessed as remaining activity at 1 uM by Kinome scan method relative to control.
The next assay relates to PBMC. The experiment in a line: Anti-inflammatory activity against human derived high respond PBMC cells assessed as increase in stimulated IL-12p70 cytokine release at 1 uM incubated for 2 hrs in the presence of LPS/SEB/aCD28 by Luminex based sandwich immunoassay. In kind it is functional, cell-based.
The target in assay [10] is Aurora kinase B (Homo sapiens) (UniProt Q96GD4). Briefly: Inhibition of human AuroraB assessed as residual activity at 1 uM using bio-4xCHKT as substrate in presence of 33P-ATP by ProQinase assay relative to control.
Assay [11] deals with Serine/threonine-protein kinase 17B (Homo sapiens) (UniProt O94768). The experiment in a line: Inhibition of DRAK2 (unknown origin) assessed as remaining activity at 1 uM by Kinome scan method relative to control.
Sequence of Serine/threonine-protein kinase 17B (Homo sapiens) (O94768 whole entry): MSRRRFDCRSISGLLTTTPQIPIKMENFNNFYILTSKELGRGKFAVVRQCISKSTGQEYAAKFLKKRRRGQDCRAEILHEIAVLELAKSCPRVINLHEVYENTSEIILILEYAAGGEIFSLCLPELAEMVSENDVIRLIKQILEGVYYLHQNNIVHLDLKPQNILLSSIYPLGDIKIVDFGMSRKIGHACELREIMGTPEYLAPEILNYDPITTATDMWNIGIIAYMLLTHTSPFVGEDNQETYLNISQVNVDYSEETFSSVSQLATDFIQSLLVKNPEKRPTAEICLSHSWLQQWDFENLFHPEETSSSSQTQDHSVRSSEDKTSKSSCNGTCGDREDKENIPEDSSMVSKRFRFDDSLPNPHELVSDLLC
The test system of assay [12] is Receptor-type tyrosine-protein kinase FLT3 (Homo sapiens), P36888 [D835Y]. Briefly: Inhibition of FLT3 D835Y mutant (unknown origin) assessed as remaining activity at 1 uM by Kinome scan method relative to control.
The target of assay [13] is T2, Aurora kinase C (Homo sapiens) (UniProt Q9UQB9).
T2 sequence (whole entry): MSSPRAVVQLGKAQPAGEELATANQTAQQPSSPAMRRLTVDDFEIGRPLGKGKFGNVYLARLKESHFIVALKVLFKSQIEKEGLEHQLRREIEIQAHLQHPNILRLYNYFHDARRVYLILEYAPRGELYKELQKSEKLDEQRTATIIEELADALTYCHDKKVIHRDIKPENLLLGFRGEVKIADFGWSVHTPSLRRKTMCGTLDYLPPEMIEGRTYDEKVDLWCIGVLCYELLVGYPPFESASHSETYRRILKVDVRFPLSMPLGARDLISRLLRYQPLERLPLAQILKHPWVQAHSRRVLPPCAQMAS
The experiment in a line: Inhibition of human AuroraC assessed as residual activity at 1 uM using bio-4xCHKT as substrate in presence of 33P-ATP by ProQinase assay relative to control.

Assay [14] has as its target Cyclin-dependent kinase 1/cyclin B1 (Homo sapiens) (UniProt P06493+P14635). The experiment in a line: Inhibition of human CDK1/CycB1 assessed as residual activity at 1 uM using RBER-CHKtide as substrate in presence of 33P-ATP by ProQinase assay relative to control. In kind it is protein-complex assay.
In assay [15] the target is Mitogen-activated protein kinase 11 (Homo sapiens) (UniProt Q15759). The experiment in a line: Inhibition of human P38beta assessed as residual activity at 1 uM using ATF2 as substrate in presence of 33P-ATP by ProQinase assay relative to control.
The target in assay [16] is Dual specificity protein kinase CLK3 (Homo sapiens) (UniProt P49761). Briefly: Inhibition of CLK3 (unknown origin) assessed as remaining activity at 1 uM by Kinome scan method relative to control.
Sequence of Dual specificity protein kinase CLK3 (Homo sapiens) (P49761 whole entry, looked up): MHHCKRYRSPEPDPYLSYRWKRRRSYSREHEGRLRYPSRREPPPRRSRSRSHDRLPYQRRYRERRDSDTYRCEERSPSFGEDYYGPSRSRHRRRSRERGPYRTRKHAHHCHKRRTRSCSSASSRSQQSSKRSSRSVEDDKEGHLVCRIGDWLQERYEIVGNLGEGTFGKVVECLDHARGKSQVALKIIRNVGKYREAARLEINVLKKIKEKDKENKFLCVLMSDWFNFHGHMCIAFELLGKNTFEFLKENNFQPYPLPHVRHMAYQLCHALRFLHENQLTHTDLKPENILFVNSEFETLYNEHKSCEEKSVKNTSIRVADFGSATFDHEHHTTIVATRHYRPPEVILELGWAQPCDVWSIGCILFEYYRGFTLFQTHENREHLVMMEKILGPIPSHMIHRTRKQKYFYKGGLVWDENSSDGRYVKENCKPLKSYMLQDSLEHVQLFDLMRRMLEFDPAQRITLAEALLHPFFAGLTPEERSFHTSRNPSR
The target of assay [17] is Calcium/calmodulin-dependent protein kinase type II subunit delta (Homo sapiens) (UniProt Q13557). The experiment in a line: Inhibition of human CAMK2D assessed as residual activity at 1 uM using RBER-CHKtide as substrate in presence of 33P-ATP by ProQinase assay relative to control.
Sequence of Calcium/calmodulin-dependent protein kinase type II subunit delta (Homo sapiens) (Q13557 whole entry): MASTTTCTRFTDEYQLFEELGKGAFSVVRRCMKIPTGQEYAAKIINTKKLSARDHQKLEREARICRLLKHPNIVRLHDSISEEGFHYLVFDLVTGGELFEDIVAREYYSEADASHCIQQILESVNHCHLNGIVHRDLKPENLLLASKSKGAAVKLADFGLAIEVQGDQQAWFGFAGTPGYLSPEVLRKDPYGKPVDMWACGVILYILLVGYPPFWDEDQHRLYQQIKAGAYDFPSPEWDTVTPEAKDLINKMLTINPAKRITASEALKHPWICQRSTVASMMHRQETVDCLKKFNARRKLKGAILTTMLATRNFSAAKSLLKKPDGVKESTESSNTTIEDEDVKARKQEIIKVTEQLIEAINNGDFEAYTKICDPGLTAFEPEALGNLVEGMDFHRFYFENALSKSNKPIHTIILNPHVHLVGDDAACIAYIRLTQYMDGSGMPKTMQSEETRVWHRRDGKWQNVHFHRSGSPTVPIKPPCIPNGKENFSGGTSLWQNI
Assay [18] can be described thus: Anti-inflammatory activity against human derived medium respond PBMC cells assessed as inhibition in stimulated IL-17A cytokine release incubated for 2 hrs in the presence of LPS/SEB/aCD28 by Luminex based sandwich immunoassay. In kind it is functional, cell-based.
Assay [19] concerns the target TGF-beta receptor type-2 (Homo sapiens) (UniProt P37173). Briefly: Inhibition of human TGFBR2 assessed as residual activity at 1 uM using RB-S6P as substrate in presence of 33P-ATP by ProQinase assay relative to control.

Sequence of TGF-beta receptor type-2 (Homo sapiens) (P37173 whole entry): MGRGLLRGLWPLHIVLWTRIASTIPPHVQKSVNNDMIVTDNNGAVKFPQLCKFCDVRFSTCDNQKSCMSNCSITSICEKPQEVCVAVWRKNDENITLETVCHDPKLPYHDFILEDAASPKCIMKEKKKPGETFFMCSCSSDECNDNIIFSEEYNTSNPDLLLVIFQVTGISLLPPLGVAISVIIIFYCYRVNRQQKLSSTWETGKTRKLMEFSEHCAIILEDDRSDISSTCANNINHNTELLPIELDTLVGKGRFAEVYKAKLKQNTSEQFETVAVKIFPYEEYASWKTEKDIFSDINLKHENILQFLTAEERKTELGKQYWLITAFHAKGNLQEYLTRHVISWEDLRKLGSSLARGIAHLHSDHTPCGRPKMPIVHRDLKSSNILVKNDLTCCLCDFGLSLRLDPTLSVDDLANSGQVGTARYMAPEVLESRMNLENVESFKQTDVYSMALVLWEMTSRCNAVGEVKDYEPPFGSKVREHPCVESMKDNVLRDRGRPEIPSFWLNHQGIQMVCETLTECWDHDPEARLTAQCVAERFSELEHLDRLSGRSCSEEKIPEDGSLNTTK
Sequence of Platelet-derived growth factor receptor alpha (Homo sapiens) (P16234 whole entry): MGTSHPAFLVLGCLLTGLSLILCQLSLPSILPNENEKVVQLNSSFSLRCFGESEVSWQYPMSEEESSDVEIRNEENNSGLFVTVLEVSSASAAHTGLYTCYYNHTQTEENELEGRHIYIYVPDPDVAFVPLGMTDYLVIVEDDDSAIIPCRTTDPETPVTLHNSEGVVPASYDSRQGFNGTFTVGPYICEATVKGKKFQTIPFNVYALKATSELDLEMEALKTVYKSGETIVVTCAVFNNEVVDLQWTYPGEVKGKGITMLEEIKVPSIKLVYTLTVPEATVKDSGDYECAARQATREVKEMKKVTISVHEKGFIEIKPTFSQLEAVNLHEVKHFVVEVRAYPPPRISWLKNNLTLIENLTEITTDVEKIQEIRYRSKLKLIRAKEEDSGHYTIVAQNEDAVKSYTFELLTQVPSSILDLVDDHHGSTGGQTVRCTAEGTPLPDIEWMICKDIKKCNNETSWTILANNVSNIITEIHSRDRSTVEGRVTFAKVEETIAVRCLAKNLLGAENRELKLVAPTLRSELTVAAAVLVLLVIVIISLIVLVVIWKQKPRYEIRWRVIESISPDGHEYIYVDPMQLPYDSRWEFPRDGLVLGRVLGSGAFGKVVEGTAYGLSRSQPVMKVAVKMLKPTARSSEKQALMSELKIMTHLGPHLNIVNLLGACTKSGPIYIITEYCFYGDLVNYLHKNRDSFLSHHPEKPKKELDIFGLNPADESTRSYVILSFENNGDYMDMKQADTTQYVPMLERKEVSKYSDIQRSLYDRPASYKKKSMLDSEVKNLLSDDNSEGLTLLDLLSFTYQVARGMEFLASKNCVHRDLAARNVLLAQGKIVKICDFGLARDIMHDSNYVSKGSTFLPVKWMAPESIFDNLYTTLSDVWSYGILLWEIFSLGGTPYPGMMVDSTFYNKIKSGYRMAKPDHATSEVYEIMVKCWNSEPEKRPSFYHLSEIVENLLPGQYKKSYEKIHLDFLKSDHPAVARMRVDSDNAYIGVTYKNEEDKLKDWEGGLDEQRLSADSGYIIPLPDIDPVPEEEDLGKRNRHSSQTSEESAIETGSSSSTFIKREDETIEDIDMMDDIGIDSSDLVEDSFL

Consider `O=C1c2ccc(Nc3ccc(F)cc3F)cc2CCc2ccc(OC[C@H](O)CO)cc21` [Skepinone-L], for which the Activity in assay [1] stood at 100%; in [2], 92%; in [3], 83%; in assay [4], 97%; in assay [5], 79%; in assay [6], 99%. Besides, the Activity in [7] was 100%; in assay [8], 81%; in assay [9], 100%; in [10] it was 96%; in assay [11], 99%; in assay [12], 98%. Further, the Activity in [13] came to 85%; in assay [14], 83%; in assay [15], 3%; in assay [16] it was 96%; in assay [17] it was 43%; in assay [19], 77%. For the same compound, the result in the assay with PBMC was Active. Moreover, the IC50 in assay [18] turned out to be 7.85 µM.
